From PMC4089486, “Structural and biochemical analyses of alanine racemase from the multidrug-resistant Clostridium difficile strain 630” (Acta Crystallographica Section D: Biological Crystallography, 2014)

Assays:
[1] = target: T1, CdAlr (C. difficile alanine racemase; CdAlrWT) (Clostridioides difficile, UniProt Q180W0); assay: X-ray crystal structure, […] A; format: binding; conditions: covalent; internal aldimine with Lys39
T1 construct: gene alr2; monomer 43306 Da, homodimer; WT preparation partly cleaved at position 271 (fragments 1-271 and 272-382)

[2] = target: T1, CdAlr (C. difficile alanine racemase; CdAlrWT); assay: X-ray co-crystal structure, […] A; format: binding; conditions: covalent; adduct with PLP (DCS) in the active site; 100 mM cycloserine

T1 sequence (Q180W0 entry or part of it): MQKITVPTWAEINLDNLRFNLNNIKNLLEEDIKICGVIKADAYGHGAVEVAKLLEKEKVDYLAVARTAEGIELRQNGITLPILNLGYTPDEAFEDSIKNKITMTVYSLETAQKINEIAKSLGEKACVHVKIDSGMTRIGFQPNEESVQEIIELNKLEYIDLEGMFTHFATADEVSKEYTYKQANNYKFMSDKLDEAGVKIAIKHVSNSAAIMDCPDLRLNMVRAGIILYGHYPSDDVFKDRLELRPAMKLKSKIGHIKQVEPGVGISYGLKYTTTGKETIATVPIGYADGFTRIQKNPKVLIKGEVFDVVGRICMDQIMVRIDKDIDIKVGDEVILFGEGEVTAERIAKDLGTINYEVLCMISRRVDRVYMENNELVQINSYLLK

SMILES	X-ray crystal structure, 2.10 A [1]	X-ray co-crystal structure, 2.26 A [2]
Cc1ncc(COP(=O)(O)O)c(C=O)c1O [PLP]	Two structures (CdAlrK271T and CdAlrPLP) contain the cofactor PLP	–
N[C@@H]1CONC1=O [cycloserine]	–	In the CdAlrcycloserine structure, cycloserine forms a covalent adduct with PLP
